These results are taken from patent publication US7514432B2, “Compounds and methods of treating cell proliferative diseases, retinopathies and arthritis” (Exonhit Therapeutics SA, priority 2003, dated 2009).

Read-outs that look alike come from different tables or passages of the source.

The subject of assay [1] is HCT116. Nature of the assay: Cell viability assay (MTT), HCT116. Format: cell-based, human. The settings on record: 1% DMSO. The method, then:
(§1) Table 12: 6-day cell viability assay (MTT) in the presence of 10% Fetal Bovine Serum and 1% DMSO, in HMEC1, HCT116, MDA-MB-231, MCF7 and NIH3T3 cell lines. 3 10^3 to 15 10^3 cells were seeded in 48-well plates in growth medium containing 10% FBS, with or without various concentrations of test compounds. Cell cultures were fed every 3 days with the appropriate media. Cell viability was determined on day 6. Data were analyzed and IC50s were calculated from dose-response curves using GraphPad Prism. Results summarized in the tables are mean±SEM of 1 to 8 independent experiments.
(§2) Table 13: 6-day cell viability assay (MTT) in the presence of 0.5% Fetal Bovine Serum and 1% DMSO, in HCT116 and MDA-MB-231 cell lines. 7.5 10^4 to 15 10^4 cells were seeded in 48-well plates in growth medium containing 10% FBS, with or without various concentrations of test compounds. Cell cultures were fed every 3 days with the appropriate media. Cell viability was determined on day 6. Data were analyzed and IC50s were calculated from dose-response curves using GraphPad Prism. Results summarized in the tables are mean±SEM of 1 to 2 independent experiments.
(§3) Table 14: 3-day cell viability assay (MTT) in the presence of 10% Fetal Bovine Serum and 1% DMSO, in DLD1, HCT116, MDA-MB-231, MCF7 and HeLa cells. 7.5 10^3 to 1.5 10^4 cells were seeded in 48-well plates in growth medium containing 10% FBS, with or without various concentrations of test compounds. Data were analyzed and IC50s were calculated from dose-response curves using GraphPad Prism. Results summarized in the tables are mean±SEM of 1 to 7 independent experiments.
(§4) Table 15: 16-hour cell viability assay (MTT) in the presence of 10% Fetal Bovine Serum and 1% DMSO, in HCT116, MDA-MB-231, NIH3T3, HepG2 and primary hepatocytes. 5 10^4 to 10 10^4 cells were seeded in 48-well plates in growth medium containing 10% FBS, with or without various concentrations of test compounds. Data were analyzed and IC50s were calculated from dose-reponse curves using GraphPad Prism. Results summarized in the tables are mean±SEM of 1 to 2 independent experiments.
(§5) In order to determine a compound's effect on cell viability, microculture tetrazolium assays (MTT) were performed as described by Carmichael et al. (1996) with modifications. Four human tumoral cell lines, namely HCT116 colon adenocarcinoma, H460 lung carcinoma, MCF-7 and MDA-MB-231 breast carcinoma cell lines, DLD1 colorectal adenocarcinoma, HeLa adenocarcinoma, HepG2 hepatocellular carcinoma. 3 immortalized but non tumorigenic cell lines, namely NIH3T3 mouse fibroblasts (American Type Culture Collection) and primary hepatocytes (Biopredic international), cultured according to their recommendations together with Human Microvasculature Endothelial Cell line HMEC1 (National Center for Infectious Diseases). Briefly, cells were seeded in 48-well plates 24 hours before drug addition. Cells were treated with 0 to 200 μM (11 concentrations) of compound solubilized in DMSO, adjusting the final concentration of DMSO to 1% in the well. 16 hours, and three or six days after treatment, 0.5 mg/ml MTT (Sigma) was added to the medium and cells were incubated for 1-5 hours at 37° C. before solubilization of formazan crystals in 100% DMSO. Absorbance was measured using a spectrophotometer at a wavelength of 550 nm. Data was analyzed using the GraphPad Prism software (GraphPad Software, Inc.), and IC50 (dose leading to 50% cell death) was calculated from the dose-response curves.

Assay [2] concerns HMEC1. Nature of the assay: Cell viability assay (MTT), HMEC1. The assay is classed as cell-based, Human. The settings on record: 10% FBS; for IC50: MTT, 6-day treatment, 1% DMSO. The method, then: as §1, §5
Assay [3] deals with NIH 3T3. Nature of the assay: Cell viability assay (MTT), NIH 3T3. The settings on record: 10% FBS, 1% DMSO. Format: cell-based, mouse. How it is done: as §1, §4, §5
Assay [4] concerns MDA-MB-231. Nature of the assay: Cell viability assay (MTT), MDA-MB-231. The assay is classed as cell-based, human. The settings on record: 1% DMSO. The method, then: as §1, §2, §3, §4, §5
[5] abbreviates: Homo sapiens, HCT-116, 144 h, 10% FBS, 6-day treatment.
Setting [6] is: Mus musculus, NIH3T3, 144 h, 6-day treatment.
[7] abbreviates: 10% FBS, 6-day treatment, read-out: IC50 μM, MDA-MB-231.
Where [8] appears, read: Homo sapiens, MDA-MB-231, 144 h, 10% FBS, 6-day treatment, read-out: IC50 μM, MDA-MB-231.

Consider `CNC(=O)N1CCN(Cc2cc(=O)c(OCCCCCSc3ccnc4cc(C(F)(F)F)ccc34)co2)CC1` [EHT 4495, 4-((5-(5-(7-(Trifluoromethyl)quinolin-4-ylthio)pentyloxy)-4-oxo-4H-pyran-2-yl)methyl)-N-methylpiperazine-1-carboxamide], for which the IC50 in assay [1] (10% FBS, 6-day treatment) was 2.3 µM; in assay [1] (setting [5]), less than 4 µM.

On to `O=c1cc(COC2CCCCO2)occ1OCCCCCOc1ccnc2cc(C(F)(F)F)ccc12` (stereo not drawn) [EHT 3788, 2-(Tetrahydro-pyran-2-yloxymethyl)-5-[5-(7-trifluoromethyl-quinolin-4-yloxy)-pentyloxy]-pyran-4-one], for which the IC50 in assay [2] (Homo sapiens, HMEC-1, 144 h) is less than 10 µM; in assay [2] it was 7.1 µM; in assay [1] (10% FBS, 6-day treatment), 2.1 µM; in assay [1] (setting [5]) it was less than 4 µM; in assay [3] (setting [6]), 8.8 µM.

As to `CCOC(=O)c1cnc2cc(C(F)(F)F)ccc2c1OCCCCCOc1coc(CN2CCN(C)CC2)cc1=O` [EHT 8791, 4-[5-(6-(4-Methyl-piperazin-1-ylmethyl)-4-oxo-4H-pyran-3-yloxy)-pentyloxy]-7-trifluoromethyl-quinoline-3-carboxylic acid ethyl ester], the IC50 in assay [2] (Homo sapiens, HMEC-1, 144 h) was roughly 200 µM; in assay [1] (setting [5]) it was roughly 200 µM.

Consider `CC(C)(C)C(=O)N1CCN(Cc2cc(=O)c(OCCCCCSc3ccnc4cc(C(F)(F)F)ccc34)co2)CC1` [EHT 0785, 5-(5-(7-(Trifluoromethyl)quinolin-4-ylthio)pentyloxy)-2-((4-(pivaloyl)piperazin-1-yl)methyl)-4H-pyran-4-one], for which the IC50 is less than 10 µM in assay [2] (Homo sapiens, HMEC-1, 144 h); 9.6 µM in assay [2]; 8.2 µM in assay [4] (setting [7]); less than 9 µM in assay [4] (setting [8]); 11.6 µM in assay [3] (setting [6]). The “difference of activity in HMEC1 cells as compared to HCT116 cells” value in assay [2] (MTT 6 days, compounds most active in HCT116) was 5 fold.

Take `CN1CCN(Cc2cc(=O)c(OCCCCCOc3ccnc4cc(C(F)(F)F)ccc34)co2)CC1` [EHT 0079, 5-(5-(7-(Trifluoromethyl)quinolin-4-yloxy)pentyloxy)-2-((4-methylpiperazin-1-yl)methyl)-4H-pyran-4-one]: the IC50 was found to be 28.6 µM in assay [2] (Homo sapiens, HMEC-1, 144 h) and 12.5 µM in assay [1] (setting [5]).

As for `CC(C)(C)OC(=O)N1CCN(Cc2cc(=O)c(OCCCCCSc3ccnc4cc(C(F)(F)F)ccc34)co2)CC1` [EHT 9358, tert-Butyl 4-((5-(5-(7-(trifluoromethyl)quinolin-4-ylthio)pentyloxy)-4-oxo-4H-pyran-2-yl)methyl)piperazine-1-carboxylate], the IC50 in assay [2] (Homo sapiens, HMEC-1, 144 h) came to 18.4 µM; in assay [1] (Homo sapiens, HCT-116, 144 h, 0.5% FBS, 6-day treatment), 1 µM; in assay [3] (setting [6]), 7.7 µM.

For the molecule `O=c1cc(CN2CCOCC2)occ1OCCCCCOc1ccnc2cc(C(F)(F)F)ccc12` [EHT 3411, 5-(5-(7-(Trifluoromethyl)quinolin-4-yloxy)pentyloxy)-2-(morpholinomethyl)-4H-pyran-4-one], the IC50 was 62.4 µM in assay [2] (Homo sapiens, HMEC-1, 144 h) and 14.1 µM in assay [1] (setting [5]).

In the case of `CN1CCN(Cc2cc(=O)c(OCCCCCOc3ccnc4c(C(F)(F)F)cccc34)co2)CC1` [EHT 5847, 5-(5-(8-(Trifluoromethyl)quinolin-4-yloxy)pentyloxy)-2-((4-methylpiperazin-1-yl)methyl)-4H-pyran-4-one], the IC50 in assay [2] (Homo sapiens, HMEC-1, 144 h) came to 31.6 µM; in assay [1] (setting [5]), 6.1 µM.

For `Cc1cc(OCCCCCOc2coc(COC3CCCCO3)cc2=O)c2cc(F)ccc2n1` (stereo not drawn) [EHT 1593, 5-[5-(6-Fluoro-2-methyl-quinolin-4-yloxy)-pentyloxy]-2-(tetrahydro-pyran-2-yloxymethyl)-4H-pyran-4-one], the IC50 in assay [2] (Homo sapiens, HMEC-1, 144 h) is 13.2 µM; in assay [1] (10% FBS, 6-day treatment), 2.4 µM; in assay [1] (setting [5]), less than 4 µM; in assay [3] (setting [6]), 21.5 µM.

With `O=c1cc(CN2CCOCC2)occ1OCCCCCOc1ccnc2ccc(C(F)(F)F)cc12` [EHT 1426, 5-(5-(6-(Trifluoromethyl)quinolin-4-yloxy)pentyloxy)-2-(morpholinomethyl)-4H-pyran-4-one], inhibition in assay [1] (setting [5]) was half-maximal at 18 µM (IC50).

Regarding `O=c1cc(CN2CCOCC2)occ1OCCCCCOc1ncnc2ccccc12` [EHT 3726, 5-(5-(Quinazolin-4-yloxy)pentyloxy)-2-(morpholinomethyl)-4H-pyran-4-one], the IC50 in assay [1] (setting [5]) is roughly 200 µM.

Turning to `COc1cc2c(cc1O)CC[C@@H]1[C@@H]2CC[C@]2(C)[C@@H](O)CC[C@@H]12` [2ME, 2-Methoxyestradiol, reference compound], the IC50 came to 2.1 µM in assay [2]; 3.1 µM in assay [1] (0.5% FBS, 6-day treatment); 0.8 µM in assay [1] (10% FBS, 6-day treatment); 128 µM in assay [1] (10% FBS, 16-hours treatment); 15.4 µM in assay [4] (0.5% FBS, 6-day treatment, read-out: IC50 (μM), MDA-MB-231); 0.3 µM in assay [4] (setting [7]). Also, the IC50 in assay [4] (10% FBS, 16-hours treatment, read-out: IC50 μM, MDA-MB-231) was greater than 100 µM; in assay [3] (6-day treatment), 2.4 µM; in assay [3] (16-hours treatment), greater than 150 µM.

Take `O=c1cc(COC2CCCCO2)occ1OCCCCCOc1cccc2ccsc12` (stereo not drawn) [EHT 6060, 5-[5-(Benzo[b]thiophen-7-yloxy)-pentyloxy]-2-(tetrahydro-pyran-2-yloxymethyl)-4H-pyran-4-one]: the IC50 in assay [2] (Homo sapiens, HMEC-1, 144 h) is 19.1 µM; in assay [1] (10% FBS, 6-day treatment), 2 µM; in assay [1] (setting [5]), less than 4 µM.

`O=c1cc(CN2CCOCC2)occ1OCCOCCSc1ccnc2cc(C(F)(F)F)ccc12` [EHT 0371, 5-(2-(2-(7-(Trifluoromethyl)quinolin-4-ylthio)ethoxy)ethoxy)-2-(morpholinomethyl)-4H-pyran-4-one] gave an IC50 in assay [2] (Homo sapiens, HMEC-1, 144 h) of 88.7 µM.

Turning to `CCCc1ccc2cccnc2c1OCCCCCOc1coc(COC2CCCCO2)cc1=O` (stereo not drawn) [EHT 5810, 5-[5-(7-Propyl-quinolin-8-yloxy)-pentyloxy]-2-(tetrahydro-pyran-2-yloxymethyl)-4H-pyran-4-one], the IC50 was determined as 15.1 µM in assay [2] (Homo sapiens, HMEC-1, 144 h) and 8.4 µM in assay [1] (setting [5]).

`O=c1cc(COC2CCCCO2)occ1OCCCCCCCSc1ccnc2cc(C(F)(F)F)ccc12` (stereo not drawn) [EHT 8883, 5-(7-(7-(Trifluoromethyl)quinolin-4-ylthio)heptyloxy)-2-((tetrahydro-2H-pyran-2-yloxy)methyl)-4H-pyran-4-one]: the IC50 in assay [2] (Homo sapiens, HMEC-1, 144 h) was less than 10 µM; in assay [2], 8 µM.

For `O=c1cc(CN2CCOCC2)occ1OCCCCCOc1ccnc2c(C(F)(F)F)cccc12` [EHT 4687, 5-(5-(8-(Trifluoromethyl)quinolin-4-yloxy)pentyloxy)-2-(morpholinomethyl)-4H-pyran-4-one], the IC50 amounted to 39.1 µM in assay [2] (Homo sapiens, HMEC-1, 144 h) and 5.5 µM in assay [1] (setting [5]).

Take `CC(C)(C)NC(=O)N1CCN(Cc2cc(=O)c(OCCCCCSc3ccnc4cc(C(F)(F)F)ccc34)co2)CC1` [EHT 3664, 4-((5-(5-(7-(Trifluoromethyl)quinolin-4-ylthio)pentyloxy)-4-oxo-4H-pyran-2-yl)methyl)-N-tert-butylpiperazine-1-carboxamide]: the IC50 in assay [2] (Homo sapiens, HMEC-1, 144 h) is less than 10 µM; in assay [2] it was 10 µM; in assay [4] (setting [7]), 6.3 µM; in assay [4] (setting [8]), less than 9 µM; in assay [3] (setting [6]), 9.8 µM.

On to `O=c1cc(CN2CCSCC2)occ1OCCCCCSc1ccnc2cc(C(F)(F)F)ccc12` [EHT 5430, 5-(5-(7-(Trifluoromethyl)quinolin-4-ylthio)pentyloxy)-2-(thiomorpholino-methyl)-4H-pyran-4-one], for which the IC50 was 20.1 µM in assay [2] (Homo sapiens, HMEC-1, 144 h); 2.1 µM in assay [1] (10% FBS, 6-day treatment); less than 4 µM in assay [1] (setting [5]).

Broadly, the IC50 is the midpoint of a concentration-inhibition curve.
